Consider 16 compounds from US9227971B2, “Pyrazolo[1,5-a]pyrimidine compounds as mTOR inhibitors” (Merck Sharp & Dohme Corp., priority 2010, dated 2016).

Where two headings read alike, the source gives them in different places.

For assay [1], the system named is phosphorylated 4E-BP1 Thr37/46 (p4E-BP1 Thr37/46), mTORC1 activity, PC3 cells. In words: mTOR target engagement assay, immunofluorescent cell-based, p4E-BP1 Thr37/46 readout (mTORC1 activity). The following applies: Homo sapiens, read-out: p4E-BP1 Thr37/46 IC50. As for the experimental part:
(§1) The target engagement of mTOR kinase inhibitors was evaluated using an immunofluorescent cell-based assay. In this assay, inhibition of mTORC1 activity was measured by the reduction in the level of phosphorylated 4E-BP1^[…] (p4E-BP1 Thr37/46), and inhibition of mTORC2 activity was measured by the reduction of phosphorylated AKT^Ser473 (pAKT S473).
PC3 cells (prostate tumor cell-line that contains a mutation in the tumor suppressor PTEN, that promotes the phosphorylation and activation of AKT and 4E-BP1) were used in the immunofluorescence assay. PC3 cells were seeded on 384 well plates (black clear bottom, Matrix #4332) overnight. PC3 cells were then treated with 40 μl of the serially diluted test compounds (in 5% fetal bovine serum, F12 medium containing 0.25% DMSO) for ninety minutes at 37° C. The test compound solution was removed, and the plates were washed gently two times with 25 μl phosphate buffered saline (PBS). The cells were fixed by adding 25 μl of Prefer reagent (from Anatech LTD, Cat#414, a glyoxal fixative for fixing proteins within a cell) for sixty minutes followed by three washes with PBS. 5% Goat serum in PBS/0.3% Triton was used to block non-specific binding (60 minutes).
The primary antibodies targeting pAKT S473 and p4E-BP1 Thr37/46 were diluted into PBS/0.3% Triton and incubated with the cells overnight at 4° C. The antibodies targeting pAKTS473 (Cat#4085, Cell signaling) and p4E-BP1 Thr37/46 (Cat#2855, Cell signaling) were used at a 1:100 dilution. Plates were washed three times with PBS/0.1% Tween 20 before adding the secondary antibody at a 1:200 dilution. (goat anti-rabbit containing a fluorescent label, Alexa Fluor 488, Cat#A11008, Invitrogen) in PBS/0.3% Triton for 60 minutes.
Finally, the plates were washed three times with PBS/0.1% Tween 20 and the fluorescent intensity was read using an Analyst HT from Molecular Devices. The fluorescent intensity values from the serially diluted compound treatment group were analyzed using the Xlfit 4 program ([…]) (Formula 205: Y=Bottom+(Top-Bottom)/(1+(IC50/X)^Hillslope) to generate the IC50 value. Where Top is the maximum signal without Compound (+DMSO only) and Bottom represents maximum inhibition. Y is the fluorescence at some compound concentration. The control used to determine the fluorescent intensities for 100% pAKT S473 or 100% phosphorylated p4E-BP1 Thr37/46 were measured from untreated wells that contained only DMSO, instead of test compound.

Assay [2] has as its system phosphorylated AKT Ser473 (pAKT S473), mTORC2 activity, PC3 cells. In words: mTOR target engagement assay, immunofluorescent cell-based, pAKT S473 readout (mTORC2 activity). As for the experimental part:
as §1
PC3 cells (prostate tumor cell-line that contains a mutation in the tumor suppressor PTEN, that promotes the phosphorylation and activation of AKT and 4E-BP1) were used in the immunofluorescence assay. […] PC3 cells were then treated with 40 μl of the serially diluted test compounds (in 5% fetal bovine serum, F12 medium containing 0.25% DMSO) for ninety minutes at 37° C. The test compound solution was removed, and the plates were washed gently two times with 25 μl phosphate buffered saline (PBS). […] 5% Goat serum in PBS/0.3% Triton was used to block non-specific binding (60 minutes).
The primary antibodies targeting pAKT S473 and p4E-BP1 Thr37/46 were diluted into PBS/0.3% Triton and incubated with the cells overnight at 4° C. […] Plates were washed three times with PBS/0.1% Tween 20 before adding the secondary antibody at a 1:200 dilution.
Finally, the plates were washed three times with PBS/0.1% Tween 20 and the fluorescent intensity was read using an Analyst HT from Molecular Devices.

[3] abbreviates: PC-3, PC3 cells, compound treatment ninety minutes at 37° C.
[4] abbreviates: Homo sapiens, PC-3, PC3 cells, compound treatment ninety minutes at 37° C.
Setting [5] is: Homo sapiens, PC-3, Table 6-1, PC3 cells.

`CS(=O)(=O)c1c([C@@H]2C[C@H]3CC[C@@H](C2)N3C(=O)c2cc(C(F)(F)F)n[nH]2)nc2c(-c3ccc(-c4ccccc4)nc3)cnn2c1N` [Compound 3.73, ((1R,3s,5S)-3-(7-amino-6-(methylsulfonyl)-3-(6-phenylpyridin-3-yl)pyrazolo[1,5-a]pyrimidin-5-yl)-8-azabicyclo[3.2.1]octan-8-yl)(3-(trifluoromethyl)-1H-pyrazol-5-yl)methanone]: the IC50 was greater than 10 µM in assay [1] (PC-3, Table 3-1, PC3 cells) and 1 to 10 µM in assay [2] (Homo sapiens, PC-3, Table 3-1, PC3 cells). On to `CC(=O)c1c([C@@H]2C[C@H]3CC[C@@H](C2)N3C(=O)CO)nc2c(-c3ccc(C4(O)CCC4)nc3)cnn2c1N` [Compound 7.18, 1-((1R,3s,5S)-3-(6-acetyl-7-amino-3-(6-(1-hydroxycyclobutyl)pyridin-3-yl)pyrazolo[1,5-a]pyrimidin-5-yl)-8-azabicyclo[3.2.1]octan-8-yl)-2-hydroxyethanone], for which the IC50 in assay [1] (setting [3]) and in assay [2] (setting [4]) was 0.1 to 1 µM in each case. On to `CC(=O)c1c([C@@H]2C[C@H]3CC[C@@H](C2)N3C(=O)N2CCOCC2)nc2c(-c3ccc(-c4ccccc4)nc3)cnn2c1N` [Compound 1.1.122, 1-(7-amino-5-((1R,3s,5S)-8-(morpholine-4-carbonyl)-8-azabicyclo[3.2.1]octan-3-yl)-3-(6-phenylpyridin-3-yl)pyrazolo[1,5-a]pyrimidin-6-yl)ethanone], for which the IC50 in assay [1] (setting [3]) and in assay [2] (setting [4]) was 1 to 10 µM in each case. With `CC(=O)c1c([C@@H]2C[C@H]3CC[C@@H](C2)N3C(N)=O)nc2c(-c3ccc(-c4ncc[nH]4)nc3)cnn2c1N` [Compound 6.30, (1R,3s,5S)-3-(3-(6-(1H-imidazol-2-yl)pyridin-3-yl)-6-acetyl-7-aminopyrazolo[1,5-a]pyrimidin-5-yl)-8-azabicyclo[3.2.1]octane-8-carboxamide], the IC50 fell in the range of 0.001 to 0.1 µM in assay [1] (PC-3, Table 6-1, PC3 cells) and 0.001 to 0.1 µM in assay [2] (setting [5]). In the case of `CC(=O)c1c([C@@H]2C[C@H]3CC[C@@H](C2)N3C(=O)c2nnc[nH]2)nc2c(-c3ccc(CO)nc3)cnn2c1N` [Compound 7.1, 1-(5-((1R,3s,5S)-8-(4H-1,2,4-triazole-3-carbonyl)-8-azabicyclo[3.2.1]octan-3-yl)-7-amino-3-(6-(hydroxymethyl)pyridin-3-yl)pyrazolo[1,5-a]pyrimidin-6-yl)ethanone], the IC50 in assay [1] (setting [3]) and in assay [2] (setting [4]) was 0.001 to 0.1 µM in each case.

Regarding `Nc1cc([C@@H]2C[C@H]3CC[C@@H](C2)N3C(=O)c2nnc[nH]2)nc2c(-c3ccc(C4(O)CCC4)nc3)cnn12` [Compound 7.44, ((1R,3s,5S)-3-(7-amino-3-(6-(1-hydroxycyclobutyl)pyridin-3-yl)pyrazolo[1,5-a]pyrimidin-5-yl)-8-azabicyclo[3.2.1]octan-8-yl)(4H-1,2,4-triazol-3-yl)methanone], in assay [1] (PC-3, Table 7-8, PC3 cells), the IC50 fell in the range of 1 to 10 µM. `CS(=O)(=O)c1c([C@@H]2C[C@H]3CC[C@@H](C2)N3C(=O)CO)nc2c(-c3ccc(-c4ccc(F)cc4)nc3)cnn2c1N` [Compound 3.118, 1-((1R,3a,5S)-3-(7-amino-3-(6-(4-fluorophenyl)pyridin-3-yl)-6-(methylsulfonyl)pyrazolo[1,5-a]pyrimidin-5-yl)-8-azabicyclo[3.2.1]octan-8-yl)-2-hydroxyethanone] came in with an IC50 in assay [2] (Table 3-1, PC3 cells) of 0.1 to 1 µM. `CC(=O)OCC(=O)N1[C@@H]2CC[C@H]1C[C@H](c1nc3c(-c4ccc(-c5ncc[nH]5)nc4)cnn3c(N)c1C(C)=O)C2` [Compound 6.9, 2-((1R,3s,5S)-3-(3-(6-(1H-imidazol-2-yl)pyridin-3-yl)-6-acetyl-7-aminopyrazolo[1,5-a]pyrimidin-5-yl)-8-azabicyclo[3.2.1]octan-8-yl)-2-oxoethyl acetate] displayed an IC50 in assay [2] (setting [5]) of 0.1 to 1 µM. Take `CC(=O)c1c([C@@H]2C[C@H]3CC[C@@H](C2)N3C(=O)C(C)(C)O)nc2c(-c3ccc(-c4nccs4)nc3)cnn2c1N` [Compound 1.1.35, 1-((1R,3s,5S)-3-(6-acetyl-7-amino-3-(6-(thiazol-2-yl)pyridin-3-yl)pyrazolo[1,5-a]pyrimidin-5-yl)-8-azabicyclo[3.2.1]octan-8-yl)-2-hydroxy-2-methylpropan-1-one]: in assay [2] (setting [4]), the IC50 lay within 0.1 to 1 µM. With `Nc1c(C2CC2)c([C@@H]2C[C@H]3CC[C@@H](C2)N3C(=O)CO)nc2c(-c3cnc(-c4ncc[nH]4)c(F)c3)cnn12` [Compound 6.29, 1-((1R,3s,5S)-3-(7-amino-6-cyclopropyl-3-(5-fluoro-6-(1H-imidazol-2-yl)pyridin-3-yl)pyrazolo[1,5-a]pyrimidin-5-yl)-8-azabicyclo[3.2.1]octan-8-yl)-2-hydroxyethanone], the IC50 in assay [2] (setting [5]) lay within 0.1 to 1 µM.

Regarding `CC(=O)c1c([C@@H]2C[C@H]3CC[C@@H](C2)N3C(=O)c2nnc[nH]2)nc2c(-c3cnc(C(N)=O)nc3)cnn2c1N` [Compound 8.97, 5-(5-((1R,3s,5S)-8-(4H-1,2,4-triazole-3-carbonyl)-8-azabicyclo[3.2.1]octan-3-yl)-6-acetyl-7-aminopyrazolo[1,5-a]pyrimidin-3-yl)pyrimidine-2-carboxamide], the IC50 in assay [2] (Homo sapiens, PC-3, PC3 cells) lay within 1 to 10 µM. Regarding `CC(=O)c1c([C@@H]2C[C@H]3CC[C@@H](C2)N3C(=O)[C@H](O)CO)nc2c(-c3ccc(-c4ccccc4)nc3)cnn2c1N` [Compound 1.1.3, (R)-1-((1R,3S,5S)-3-(6-acetyl-7-amino-3-(6-phenylpyridin-3-yl)pyrazolo[1,5-a]pyrimidin-5-yl)-8-azabicyclo[3.2.1]octan-8-yl)-2,3-dihydroxypropan-1-one], the IC50 in assay [2] (setting [4]) fell in the range of 0.1 to 1 µM. For `COc1cc(-c2ccc(-c3cnn4c(N)c(C5CC5)c([C@@H]5C[C@H]6CC[C@@H](C5)N6C(=O)c5nnc[nH]5)nc34)cn2)ccc1F` [Compound 4.11, ((1R,3a,5S)-3-(7-amino-6-cyclopropyl-3-(6-(4-fluoro-3-methoxyphenyl)pyridin-3-yl)pyrazolo[1,5-a]pyrimidin-5-yl)-8-azabicyclo[3.2.1]octan-8-yl)(4H-1,2,4-triazol-3-yl)methanone], the IC50 in assay [1] (setting [3]) is greater than 10 µM. In the case of `CC(=O)c1c([C@@H]2C[C@H]3CC[C@@H](C2)N3C(=O)C(C)(C)O)nc2c(-c3ccc(-c4ccccc4)nc3)cnn2c1N` [Compound 1.1.6, 1-((1R,3s,5S)-3-(6-acetyl-7-amino-3-(6-phenylpyridin-3-yl)pyrazolo[1,5-a]pyrimidin-5-yl)-8-azabicyclo[3.2.1]octan-8-yl)-2-hydroxy-2-methylpropan-1-one], in assay [2] (setting [4]), the IC50 was 0.1 to 1 µM. `CC(=O)c1c([C@H]2CC3CC[C@H](C2)N3C(=O)c2nnc[nH]2)nc2c(-c3cnc4c(c3)CCC4O)cnn2c1N` (stereo partly drawn) [Compound 7.60, 1-(5-((1R,3s,5S)-8-(4H-1,2,4-triazole-3-carbonyl)-8-azabicyclo[3.2.1]octan-3-yl)-7-amino-3-(7-hydroxy-6,7-dihydro-5H-cyclopenta[b]pyridin-3-yl)pyrazolo[1,5-a]pyrimidin-6-yl)ethanone] returned an IC50 in assay [2] (Homo sapiens, PC-3, PC3 cells) of 0.1 to 1 µM. In assay [2] (setting [5]), `CC(=O)c1c([C@@H]2C[C@H]3CC[C@@H](C2)N3C(=O)C(C)(C)CO)nc2c(-c3ccc(-c4ncc[nH]4)nc3)cnn2c1N` [Compound 6.45, 1-((1R,3s,5S)-3-(3-(6-(1H-imidazol-2-yl)pyridin-3-yl)-6-acetyl-7-aminopyrazolo[1,5-a]pyrimidin-5-yl)-8-azabicyclo[3.2.1]octan-8-yl)-3-hydroxy-2,2-dimethylpropan-1-one] came in with an IC50 of 0.1 to 1 µM.
